# From US6503881B2 (priority 1996, dated 2003)
# Read-outs that look alike come from different tables or passages of the source.
# Key:
# E. faecium = type: cell-based; conditions: for MIC in combination: Teicoplanin + MBI 26
# [1] = tested on: microorganisms with acquired resistance
# K. pneumoniae = type: cell-based; conditions: for MIC Alone: agent alone; for MBI 26 MIC, +Erythro.: in combination with erythromycin
# [2] = tested on: inherently resistant microorganisms; conditions: for MBI 26 MIC +Vancomycin: Teicoplanin table; for MIC in combination: Vancomycin +MBI 26
substance,measurement,setting,value
KWKSFIKKLTSAAKKVVTTAKPLISS [MBI 26],MIC in combination,E. faecium; E. faecium 97029 VanA,8 µg/mL
same,MIC Alone,E. faecium; E. faecium 97030 VanA,64 µg/mL
same,MIC in combination,E. faecium; E. faecium 97030 VanA,32 µg/mL
same,MIC Alone,E. faecium; E. faecium 97031 VanA,64 µg/mL
same,MIC in combination,E. faecium; E. faecium 97031 VanA,32 µg/mL
same,MIC Alone,E. faecium; E. faecium 97032 VanA,64 µg/mL
same,MIC in combination,E. faecium; E. faecium 97032 VanA,8 µg/mL
same,MIC Alone,E. faecium; E. faecium 97033 VanA,64 µg/mL
same,MIC in combination,E. faecium; E. faecium 97033 VanA,8 µg/mL
same,MIC Alone,E. faecium; E. faecium 97034 VanA,64 µg/mL
same,MIC in combination,E. faecium; E. faecium 97034 VanA,8 µg/mL
same,MIC Alone,E. faecium; E. faecium 97035 VanA,64 µg/mL
same,MIC in combination,E. faecium; E. faecium 97035 VanA,0.5 µg/mL
same,MIC Alone,E. faecium; E. faecium 97036 VanA,8 µg/mL
same,MIC in combination,E. faecium; E. faecium 97036 VanA,4 µg/mL
same,Peptide MIC,"[1]; S. aureus SA7609, pair Erythromycin / MBI 26",1 µg/mL
same,Peptide MIC,"[1]; S. aureus SA7795, pair Erythromycin / MBI 26",8 µg/mL
same,Peptide MIC,"[1]; S. aureus SA7796, pair Erythromycin / MBI 26",2 µg/mL
same,Peptide MIC,"[1]; S. aureus SA7818, pair Methicillin / MBI 26",2 µg/mL
same,Peptide MIC,"[1]; S. aureus SA7835, pair Erythromycin / MBI 26",2 µg/mL
same,Peptide MIC,"[1]; S. aureus SA7835, pair Methicillin / MBI 26",16 µg/mL
same,Peptide MIC,"[1]; S. epidermidis SE8403, pair Erythromycin / MBI 26",2 µg/mL
same,Peptide MIC,"[1]; S. epidermidis SE8410, pair Erythromycin / MBI 26",1 µg/mL
same,Peptide MIC,"[1]; S. epidermidis SE8411, pair Erythromycin / MBI 26",1 µg/mL
same,Peptide MIC,"[1]; S. epidermidis SE8497, pair Clindamycin / MBI 26",2 µg/mL
same,Peptide MIC,"[1]; S. epidermidis SE8497, pair Erythromycin / MBI 26",1 µg/mL
same,Peptide MIC,"[1]; S. epidermidis SE8503, pair Erythromycin / MBI 26",1 µg/mL
same,Peptide MIC,"[1]; S. epidermidis SE8565, pair Erythromycin / MBI 26",1 µg/mL
same,Peptide MIC,"[1]; S. haemolyticus SH8472, pair Ampicillin / MBI 26",16 µg/mL
same,Peptide MIC,"[1]; S. haemolyticus SH8563, pair Methicillin / MBI 26",2 µg/mL
same,Peptide MIC,"[1]; S. haemolyticus SH8575, pair Ampicillin / MBI 26",8 µg/mL
same,Peptide MIC,"[1]; S. haemolyticus SH8578, pair Erythromycin / MBI 26",0.1 µg/mL
same,Peptide MIC,"[1]; S. haemolyticus SH8597, pair Clindamycin / MBI 26",1 µg/mL
same,MIC Alone,K. pneumoniae; K. pneumoniae KP001,16 µg/mL
same,"MBI 26 MIC, +Erythro.",K. pneumoniae; K. pneumoniae KP001,8 µg/mL
same,MIC Alone,K. pneumoniae; K. pneumoniae KP002,64 µg/mL
same,"MBI 26 MIC, +Erythro.",K. pneumoniae; K. pneumoniae KP002,32 µg/mL
same,MBI 26 MIC +Vancomycin,[2]; E. casseliflavus 97056 VanC,2 µg/mL
same,MIC in combination,[2]; E. casseliflavus 97056 VanC,1 µg/mL
same,MIC Alone,"[2]; E. casseliflavus 97056 VanC, pair Teicoplanin / MBI 26",64 µg/mL
same,MIC Alone,"[2]; E. casseliflavus 97056 VanC, pair Vancomycin / MBI 26",8 µg/mL
same,MBI 26 MIC +Vancomycin,[2]; E. casseliflavus 97057 VanC,0.5 µg/mL
same,MIC in combination,[2]; E. casseliflavus 97057 VanC,0.5 µg/mL
same,MIC Alone,"[2]; E. casseliflavus 97057 VanC, pair Teicoplanin / MBI 26",64 µg/mL
same,MIC Alone,"[2]; E. casseliflavus 97057 VanC, pair Vancomycin / MBI 26",2 µg/mL
same,MBI 26 MIC +Vancomycin,[2]; E. casseliflavus 97058 VanC,0.5 µg/mL
same,MIC in combination,[2]; E. casseliflavus 97058 VanC,0.25 µg/mL
same,MIC Alone,"[2]; E. casseliflavus 97058 VanC, pair Teicoplanin / MBI 26",32 µg/mL
same,MIC Alone,"[2]; E. casseliflavus 97058 VanC, pair Vancomycin / MBI 26",4 µg/mL
same,MBI 26 MIC +Vancomycin,[2]; E. casseliflavus 97059 VanC,1 µg/mL
same,MIC in combination,[2]; E. casseliflavus 97059 VanC,0.5 µg/mL
same,MIC Alone,"[2]; E. casseliflavus 97059 VanC, pair Teicoplanin / MBI 26",64 µg/mL
same,MIC Alone,"[2]; E. casseliflavus 97059 VanC, pair Vancomycin / MBI 26",32 µg/mL
same,MBI 26 MIC +Vancomycin,[2]; E. casseliflavus 97060 VanC,1 µg/mL
same,MIC in combination,[2]; E. casseliflavus 97060 VanC,0.25 µg/mL
same,MIC Alone,"[2]; E. casseliflavus 97060 VanC, pair Teicoplanin / MBI 26",64 µg/mL
same,MIC Alone,"[2]; E. casseliflavus 97060 VanC, pair Vancomycin / MBI 26",0.5 µg/mL
same,MBI 26 MIC +Vancomycin,[2]; E. gallinarum 97044 VanC,1 µg/mL
same,MIC in combination,[2]; E. gallinarum 97044 VanC,0.5 µg/mL
same,MIC Alone,"[2]; E. gallinarum 97044 VanC, pair Teicoplanin / MBI 26",64 µg/mL
same,MIC Alone,"[2]; E. gallinarum 97044 VanC, pair Vancomycin / MBI 26",8 µg/mL
same,MBI 26 MIC +Vancomycin,[2]; E. gallinarum 97046 VanC,1 µg/mL
same,MIC in combination,[2]; E. gallinarum 97046 VanC,4 µg/mL
same,MIC Alone,"[2]; E. gallinarum 97046 VanC, pair Teicoplanin / MBI 26",8 µg/mL
same,MIC Alone,"[2]; E. gallinarum 97046 VanC, pair Vancomycin / MBI 26",2 µg/mL
same,MBI 26 MIC +Vancomycin,[2]; E. gallinarum 97047 VanC,32 µg/mL
same,MIC in combination,[2]; E. gallinarum 97047 VanC,8 µg/mL
same,MIC Alone,"[2]; E. gallinarum 97047 VanC, pair Teicoplanin / MBI 26",64 µg/mL
same,MIC Alone,"[2]; E. gallinarum 97047 VanC, pair Vancomycin / MBI 26",64 µg/mL
same,MBI 26 MIC +Vancomycin,[2]; E. gallinarum 97048 VanC,1 µg/mL
same,MIC in combination,[2]; E. gallinarum 97048 VanC,2 µg/mL
same,MIC Alone,"[2]; E. gallinarum 97048 VanC, pair Teicoplanin / MBI 26",8 µg/mL
same,MIC Alone,"[2]; E. gallinarum 97048 VanC, pair Vancomycin / MBI 26",2 µg/mL
same,MBI 26 MIC +Vancomycin,[2]; E. gallinarum 97049 VanC,32 µg/mL
same,MIC in combination,[2]; E. gallinarum 97049 VanC,16 µg/mL
same,MIC Alone,"[2]; E. gallinarum 97049 VanC, pair Teicoplanin / MBI 26",64 µg/mL
same,MIC Alone,"[2]; E. gallinarum 97049 VanC, pair Vancomycin / MBI 26",64 µg/mL
